US11117892B2, “Pyrrolo-pyridine derivative compound, method for preparing same, and pharmaceutical composition containing same as active ingredient for prevention or treatment of protein kinase-related diseases” (DAEGU-GYEONGBUK MEDICAL INNOVATION FOUNDATION, priority 2017, dated 2021)

Key:
Experiment in all cases: scanMAX Kinase assay panel
Type in all cases: binding
Conditions in all cases: read-out: % control
[1] = molecular target: ABL1(H396P)-phosphorylated (Homo sapiens (Human), UniProt P00519, H396P)
Outline: (§1)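 Panel: scanMAX. Metric: % control. The 100% anchor is DMSO and the 0% anchor is the positive control.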

[2] = molecular target: AXL (Homo sapiens (Human), UniProt P30530)
Outline: as §1

[3] = molecular target: BIKE (Homo sapiens (Human), UniProt Q9NSY1)
Outline: as §1

[4] = molecular target: CAMK1B (Homo sapiens (Human), UniProt Q6P2M8)
Outline: as §1

[5] = molecular target: CDKL3 (Homo sapiens (Human), UniProt Q8IVW4)
Outline: as §1

[6] = molecular target: CHEK1 (Homo sapiens (Human), UniProt O14757)
Outline: as §1

[7] = molecular target: CSF1R (Homo sapiens (Human), UniProt P07333)
Outline: as §1

[8] = molecular target: CSK (Homo sapiens (Human), UniProt P41240)
Outline: as §1

[9] = molecular target: CSNK1A1 (Homo sapiens (Human), UniProt P48729)
Outline: as §1

[10] = molecular target: EGFR (Homo sapiens (Human), UniProt P00533)
Outline: as §1

[11] = molecular target: EGFR(G719C) (Homo sapiens (Human), UniProt P00533, G719C)
Outline: as §1

[12] = molecular target: EGFR(L858R) (Homo sapiens (Human), UniProt P00533, L858R)
Outline: as §1

[13] = molecular target: ERK3 (Homo sapiens (Human), UniProt Q16659)
Outline: as §1

[14] = molecular target: FGFR3(G697C) (Homo sapiens (Human), UniProt P22607, G697C)
Outline: as §1

[15] = molecular target: FGFR4 (Homo sapiens (Human), UniProt P22455)
Outline: as §1

[16] = molecular target: FLT3 (Homo sapiens (Human), UniProt P36888)
Outline: as §1

[17] = molecular target: FLT3(R834Q) (Homo sapiens (Human), UniProt P36888, R834Q)
Outline: as §1

[18] = molecular target: ICK (Homo sapiens (Human), UniProt Q9UPZ9)
Outline: as §1

[19] = molecular target: IRAK1 (Homo sapiens (Human), UniProt P51617)
Outline: as §1

[20] = molecular target: LIMK2 (Homo sapiens (Human), UniProt P53671)
Outline: as §1

[21] = molecular target: LRRK2(G2019S) (Homo sapiens (Human), UniProt Q5S007, G2019S)
Outline: as §1

[22] = molecular target: MAP4K5 (Homo sapiens (Human), UniProt Q9Y4K4)
Outline: as §1

[23] = molecular target: MEK4 (Homo sapiens (Human), UniProt P45985)
Outline: as §1

[24] = molecular target: MKNK2 (Homo sapiens (Human), UniProt Q9HBH9)
Outline: as §1

[25] = molecular target: MST3 (Homo sapiens (Human), UniProt Q9Y6E0)
Outline: as §1

[26] = molecular target: NEK4 (Homo sapiens (Human), UniProt P51957)
Outline: as §1

[27] = molecular target: NLK (Homo sapiens (Human), UniProt Q9UBE8)
Outline: as §1

[28] = molecular target: PAK3 (Homo sapiens (Human), UniProt O75914)
Outline: as §1

[29] = molecular target: PCTK3 (Homo sapiens (Human), UniProt Q07002)
Outline: as §1

[30] = molecular target: PIK3C2G (Homo sapiens (Human), UniProt O75747)
Outline: as §1

[31] = molecular target: PIK3CA(M1043I) (Homo sapiens (Human), UniProt P42336, M1043I)
Outline: as §1

[32] = molecular target: PIK3CB (Homo sapiens (Human), UniProt P42338)
Outline: as §1

[33] = molecular target: PKAC-beta (Homo sapiens (Human), UniProt P22694)
Outline: as §1

[34] = molecular target: PRKCD (Homo sapiens (Human), UniProt Q05655)
Outline: as §1

[35] = molecular target: RPS6KA5(Kin.Dom.2-C-terminal) (Homo sapiens (Human), UniProt O75582)
Outline: as §1

[36] = molecular target: TLK2 (Homo sapiens (Human), UniProt Q86UE8)
Outline: as §1

[37] = molecular target: YANK1 (Homo sapiens (Human), UniProt Q8WU08)
Outline: as §1

[38] = molecular target: YES (Homo sapiens (Human), UniProt P07947)
Outline: as §1

[39] = molecular target: ZAK (Homo sapiens (Human), UniProt Q9NYL2)
Outline: as §1

YES, sequence (P07947 whole entry): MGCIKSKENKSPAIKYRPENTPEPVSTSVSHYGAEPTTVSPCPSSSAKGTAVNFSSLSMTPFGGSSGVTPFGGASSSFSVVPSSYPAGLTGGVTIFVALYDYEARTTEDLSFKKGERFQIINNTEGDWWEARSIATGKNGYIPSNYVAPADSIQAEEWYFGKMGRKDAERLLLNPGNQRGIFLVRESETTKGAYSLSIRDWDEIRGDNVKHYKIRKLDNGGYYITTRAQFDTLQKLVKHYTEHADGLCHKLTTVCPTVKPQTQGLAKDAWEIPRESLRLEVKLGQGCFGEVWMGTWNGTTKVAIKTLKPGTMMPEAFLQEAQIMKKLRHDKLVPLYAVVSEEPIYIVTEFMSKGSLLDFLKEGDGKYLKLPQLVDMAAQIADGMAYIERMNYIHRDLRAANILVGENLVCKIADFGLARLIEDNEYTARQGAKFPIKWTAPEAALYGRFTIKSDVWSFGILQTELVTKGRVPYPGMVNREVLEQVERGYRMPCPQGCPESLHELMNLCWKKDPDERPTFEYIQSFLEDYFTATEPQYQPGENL
RPS6KA5(Kin.Dom.2-C-terminal), sequence (O75582 426-687): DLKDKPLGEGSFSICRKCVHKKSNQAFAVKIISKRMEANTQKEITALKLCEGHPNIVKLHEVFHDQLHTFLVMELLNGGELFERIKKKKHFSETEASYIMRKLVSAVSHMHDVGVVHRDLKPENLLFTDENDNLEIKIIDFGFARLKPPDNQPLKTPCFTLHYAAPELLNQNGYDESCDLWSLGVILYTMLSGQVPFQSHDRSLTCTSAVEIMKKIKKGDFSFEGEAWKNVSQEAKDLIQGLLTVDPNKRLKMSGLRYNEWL
BIKE, sequence (Q9NSY1 whole entry): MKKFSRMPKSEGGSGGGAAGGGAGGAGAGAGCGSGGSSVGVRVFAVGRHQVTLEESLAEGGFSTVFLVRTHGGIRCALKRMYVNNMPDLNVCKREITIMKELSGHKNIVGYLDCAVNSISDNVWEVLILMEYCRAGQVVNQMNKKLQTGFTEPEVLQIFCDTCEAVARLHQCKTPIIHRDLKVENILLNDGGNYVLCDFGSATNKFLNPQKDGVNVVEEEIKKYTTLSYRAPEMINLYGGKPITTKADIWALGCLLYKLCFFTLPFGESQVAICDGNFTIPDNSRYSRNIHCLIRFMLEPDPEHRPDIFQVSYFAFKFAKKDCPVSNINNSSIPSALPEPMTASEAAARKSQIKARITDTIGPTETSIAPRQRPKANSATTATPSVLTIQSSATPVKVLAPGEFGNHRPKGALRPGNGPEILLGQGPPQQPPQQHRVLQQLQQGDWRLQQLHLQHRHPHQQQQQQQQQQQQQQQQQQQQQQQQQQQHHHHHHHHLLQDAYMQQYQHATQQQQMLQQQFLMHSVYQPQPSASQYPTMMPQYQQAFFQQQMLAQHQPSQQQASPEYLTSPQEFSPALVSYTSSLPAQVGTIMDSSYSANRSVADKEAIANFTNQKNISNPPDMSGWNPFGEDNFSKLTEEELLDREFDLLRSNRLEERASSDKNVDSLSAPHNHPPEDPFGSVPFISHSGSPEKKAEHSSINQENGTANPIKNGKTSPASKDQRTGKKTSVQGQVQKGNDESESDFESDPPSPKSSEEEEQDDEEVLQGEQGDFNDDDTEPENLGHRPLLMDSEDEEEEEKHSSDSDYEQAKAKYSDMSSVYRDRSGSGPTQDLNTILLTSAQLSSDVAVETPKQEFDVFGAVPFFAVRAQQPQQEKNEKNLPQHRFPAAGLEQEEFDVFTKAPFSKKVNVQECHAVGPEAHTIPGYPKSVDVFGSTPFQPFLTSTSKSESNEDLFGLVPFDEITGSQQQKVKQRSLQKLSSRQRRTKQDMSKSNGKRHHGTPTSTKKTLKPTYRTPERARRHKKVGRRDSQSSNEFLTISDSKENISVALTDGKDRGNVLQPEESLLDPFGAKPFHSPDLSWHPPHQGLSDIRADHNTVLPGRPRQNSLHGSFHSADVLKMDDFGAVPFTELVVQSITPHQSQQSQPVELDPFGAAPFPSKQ
EGFR, sequence (P00533 25-1210): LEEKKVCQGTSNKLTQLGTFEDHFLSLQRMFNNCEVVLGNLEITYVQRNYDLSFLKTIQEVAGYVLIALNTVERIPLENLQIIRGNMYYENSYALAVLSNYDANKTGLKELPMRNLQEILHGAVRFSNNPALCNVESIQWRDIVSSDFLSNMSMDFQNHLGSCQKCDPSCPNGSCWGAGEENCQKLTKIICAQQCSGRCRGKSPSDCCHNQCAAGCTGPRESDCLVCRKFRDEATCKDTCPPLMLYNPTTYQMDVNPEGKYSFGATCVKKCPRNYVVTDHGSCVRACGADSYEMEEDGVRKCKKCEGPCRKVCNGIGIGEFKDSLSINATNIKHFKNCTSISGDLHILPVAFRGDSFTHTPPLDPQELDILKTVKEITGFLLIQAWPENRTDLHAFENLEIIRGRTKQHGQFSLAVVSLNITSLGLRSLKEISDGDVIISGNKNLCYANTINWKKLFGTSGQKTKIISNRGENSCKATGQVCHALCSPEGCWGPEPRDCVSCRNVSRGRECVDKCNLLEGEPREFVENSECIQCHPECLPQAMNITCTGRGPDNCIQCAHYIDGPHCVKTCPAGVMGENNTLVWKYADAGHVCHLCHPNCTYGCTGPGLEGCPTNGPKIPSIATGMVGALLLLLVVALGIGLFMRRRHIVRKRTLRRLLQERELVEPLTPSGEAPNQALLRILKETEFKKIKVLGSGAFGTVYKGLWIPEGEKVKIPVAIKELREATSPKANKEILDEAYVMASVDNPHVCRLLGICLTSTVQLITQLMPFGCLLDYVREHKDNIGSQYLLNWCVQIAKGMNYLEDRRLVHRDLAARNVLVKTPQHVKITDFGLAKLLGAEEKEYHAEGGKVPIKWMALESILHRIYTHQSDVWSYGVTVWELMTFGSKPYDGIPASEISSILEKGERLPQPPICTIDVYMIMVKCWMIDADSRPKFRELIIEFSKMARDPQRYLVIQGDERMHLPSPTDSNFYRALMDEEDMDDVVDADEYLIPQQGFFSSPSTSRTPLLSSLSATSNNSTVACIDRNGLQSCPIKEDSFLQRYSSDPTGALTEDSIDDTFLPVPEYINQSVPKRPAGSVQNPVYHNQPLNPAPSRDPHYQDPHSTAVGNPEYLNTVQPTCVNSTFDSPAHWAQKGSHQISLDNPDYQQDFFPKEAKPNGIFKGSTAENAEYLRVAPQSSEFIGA
AXL, sequence (P30530 26-894): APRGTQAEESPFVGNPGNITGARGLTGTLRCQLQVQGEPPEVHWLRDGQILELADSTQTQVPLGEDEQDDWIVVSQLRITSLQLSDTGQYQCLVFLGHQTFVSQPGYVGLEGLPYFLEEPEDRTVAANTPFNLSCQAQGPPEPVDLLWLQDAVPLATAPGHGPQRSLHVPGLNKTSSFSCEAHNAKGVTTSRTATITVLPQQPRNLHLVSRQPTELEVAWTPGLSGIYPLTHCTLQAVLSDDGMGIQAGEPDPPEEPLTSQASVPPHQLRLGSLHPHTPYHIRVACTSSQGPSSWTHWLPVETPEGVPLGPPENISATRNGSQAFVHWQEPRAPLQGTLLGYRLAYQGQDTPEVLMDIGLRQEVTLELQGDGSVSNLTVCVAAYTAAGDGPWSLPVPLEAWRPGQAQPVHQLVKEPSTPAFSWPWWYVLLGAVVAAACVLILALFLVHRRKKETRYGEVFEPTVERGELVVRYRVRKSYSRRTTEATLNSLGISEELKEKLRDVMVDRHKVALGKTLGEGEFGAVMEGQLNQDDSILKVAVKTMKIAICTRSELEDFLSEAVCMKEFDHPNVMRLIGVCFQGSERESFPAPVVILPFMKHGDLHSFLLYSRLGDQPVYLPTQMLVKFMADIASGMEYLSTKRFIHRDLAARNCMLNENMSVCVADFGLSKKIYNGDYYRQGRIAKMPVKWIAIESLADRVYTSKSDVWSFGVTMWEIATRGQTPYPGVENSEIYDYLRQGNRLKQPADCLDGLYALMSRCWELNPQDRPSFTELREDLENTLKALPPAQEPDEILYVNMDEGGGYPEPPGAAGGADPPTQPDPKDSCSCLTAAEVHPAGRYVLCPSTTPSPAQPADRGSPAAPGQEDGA
NEK4, sequence (P51957 whole entry): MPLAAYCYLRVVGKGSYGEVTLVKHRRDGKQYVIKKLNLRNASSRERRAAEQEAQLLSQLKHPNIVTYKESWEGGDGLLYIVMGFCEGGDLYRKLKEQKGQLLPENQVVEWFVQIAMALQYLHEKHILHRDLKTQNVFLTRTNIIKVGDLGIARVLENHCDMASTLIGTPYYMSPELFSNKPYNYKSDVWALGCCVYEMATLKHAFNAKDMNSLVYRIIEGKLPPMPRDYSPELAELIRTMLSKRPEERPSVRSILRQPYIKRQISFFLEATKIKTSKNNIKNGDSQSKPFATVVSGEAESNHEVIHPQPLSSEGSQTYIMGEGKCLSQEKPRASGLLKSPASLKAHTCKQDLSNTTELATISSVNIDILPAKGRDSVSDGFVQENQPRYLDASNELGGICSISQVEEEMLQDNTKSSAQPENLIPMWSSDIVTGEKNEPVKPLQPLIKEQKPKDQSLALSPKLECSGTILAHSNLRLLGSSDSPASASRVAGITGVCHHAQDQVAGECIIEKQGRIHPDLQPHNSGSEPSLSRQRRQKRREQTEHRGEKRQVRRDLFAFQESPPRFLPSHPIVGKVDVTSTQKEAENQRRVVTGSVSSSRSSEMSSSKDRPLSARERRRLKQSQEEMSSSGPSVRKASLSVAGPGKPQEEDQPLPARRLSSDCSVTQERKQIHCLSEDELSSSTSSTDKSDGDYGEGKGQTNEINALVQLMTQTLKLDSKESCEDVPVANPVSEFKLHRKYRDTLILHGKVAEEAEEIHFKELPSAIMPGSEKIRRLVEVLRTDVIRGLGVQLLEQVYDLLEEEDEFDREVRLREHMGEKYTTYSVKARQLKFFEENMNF

Compound	remaining binding at 1 µM [1] [%]	remaining binding at 1 µM [2] [%]	remaining binding at 1 µM [3] [%]	remaining binding at 1 µM [4] [%]	remaining binding at 1 µM [5] [%]	remaining binding at 1 µM [6] [%]	remaining binding at 1 µM [7] [%]	remaining binding at 1 µM [8] [%]	remaining binding at 1 µM [9] [%]	remaining binding at 1 µM [10] [%]	remaining binding at 1 µM [11] [%]	remaining binding at 1 µM [12] [%]	remaining binding at 1 µM [13] [%]	remaining binding at 1 µM [14] [%]	remaining binding at 1 µM [15] [%]	remaining binding at 1 µM [16] [%]	remaining binding at 1 µM [17] [%]	remaining binding at 1 µM [18] [%]	remaining binding at 1 µM [19] [%]	remaining binding at 1 µM [20] [%]	further results
CCNc1cc(Nc2ccc(C(=O)N3CCC(N4CCOCC4)CC3)cc2OC)nc2[nH]cc(C#N)c12 [Example 18, 4-(ethylamino)-6-((2-methoxy-4-(4-morpholinopiperidine-1-carbonyl)phenyl)amino)-1H-pyrrolo[2,3-b]pyridine-3-carbonitrile]	85	98	90	34	100	100	73	93	8.2	100	95	100	85	88	80	83	92	84	79	90	remaining binding at 1 µM [21]: 0.6%; remaining binding at 1 µM [22]: 99%; remaining binding at 1 µM [23]: 0%; remaining binding at 1 µM [24]: 60%; remaining binding at 1 µM [25]: 88%; remaining binding at 1 µM [26]: 86%; remaining binding at 1 µM [27]: 84%; remaining binding at 1 µM [28]: 93%; remaining binding at 1 µM [29]: 86%; remaining binding at 1 µM [30]: 92%; remaining binding at 1 µM [31]: 100%; remaining binding at 1 µM [32]: 89%; remaining binding at 1 µM [33]: 66%; remaining binding at 1 µM [34]: 75%; remaining binding at 1 µM [35]: 10%; remaining binding at 1 µM [36]: 98%; remaining binding at 1 µM [37]: 100%; remaining binding at 1 µM [38]: 90%; remaining binding at 1 µM [39]: 96%
CCNc1cc(Nc2ccc(C(=O)N3CCC(N4CCOCC4)CC3)cc2OC)nc2[nH]cc(C(F)(F)F)c12 [Example 57, (4-((4-(ethylamino)-3-(trifluoromethyl)-1H-pyrrolo[2,3-b]pyridin-6-yl)amino)-3-methoxyphenyl) (4-morpholinopiperidin-1-yl)methanone]	100	100	85	81	61	91	72	76	51	59	91	100	94	78	92	100	100	100	100	99	remaining binding at 1 µM [21]: 27%; remaining binding at 1 µM [22]: 100%; remaining binding at 1 µM [23]: 98%; remaining binding at 1 µM [24]: 95%; remaining binding at 1 µM [25]: 84%; remaining binding at 1 µM [26]: 99%; remaining binding at 1 µM [27]: 84%; remaining binding at 1 µM [28]: 83%; remaining binding at 1 µM [29]: 86%; remaining binding at 1 µM [30]: 100%; remaining binding at 1 µM [31]: 99%; remaining binding at 1 µM [32]: 100%; remaining binding at 1 µM [33]: 92%; remaining binding at 1 µM [34]: 87%; remaining binding at 1 µM [35]: 83%; remaining binding at 1 µM [36]: 88%; remaining binding at 1 µM [37]: 100%; remaining binding at 1 µM [38]: 83%; remaining binding at 1 µM [39]: 87%
